Data on two compounds can be found in patent US20220395464A1, “ORALLY ADMINISTERED SOLID DOSAGE FORM DRUG” (ASCENTAWITS PHARMACEUTICALS, LTD., priority 2019, published 2022).

Data set [1] is described as follows: Solubility study of AST-3424 (shaking at 25° C., HPLC content). It counts as physicochemical. Particulars: for solubility / solubility at 1 h / solubility at 4 h / solubility at 8 h / solubility at 24 h / solubility at 48 h: thermodynamic from solid; for solubility at 1 h / solubility at 4 h / solubility at 8 h / solubility at 24 h / solubility at 48 h: read-out: Content (solubility test). The protocol: An appropriate amount of AST-3424 (hereinafter called active pharmaceutical ingredients or API) was taken and placed in a suitable container containing 40 ml of the mentioned-above solutions (20 ml for organic solvents) respectively until excess oil droplets of AST-3424 existed in the solution.
Samples were put in a constant temperature shaking incubator at 25° C. and shaken at a proper speed (100 rpm). The samples were taken and checked pH values at each appointed time as specified in Table 1. Then, the samples were centrifuged (1000 rpm, 10 minutes), and added the corresponding solution or organic solvent (to dissolve the API for solubility study) to dilute to an appropriate concentration for HPLC analysis, so as to obtain solubility data. It should be noted that the dilution ratio after test was accurately recorded.
In the solubility study, for a determination of sample contents, 1 ml of culture medium were measured respectively, and then centrifuged at 1000 rpm for 10 minutes. Subnatant after centrifugation were collected respectively for HPLC analysis. In the solution stability study, the samples may be provided directly for HPLC analysis.
The contents were determined by a HPLC method: AST-3424 was used as an external standard for quantification.
According to the solution stability results, AST-3424 is very unstable in the acetate buffer of pH 4.5. Therefore, the phosphate buffer of pH 6.8, the phosphate buffer of pH 7.4, the alkaline borate buffer of pH 10.0, and the purified water were selected for the solubility study. An appropriate amount of AST-3424 was weighed and placed in 40 ml of medium (8 ml ethanol/propylene glycol (50:50, v/v) was used), until excess flocci was present in the solution.

Data set [2] relates to H460 non-small cell lung cancer. Put plainly: In vitro proliferation inhibition assay, 2 h exposure, Alamar Blue, with or without AKR1C3 inhibitor TH3021. It counts as cell-based, human. Particulars: for IC50: 2 h exposure, 70 h further incubation. The protocol: The activities of the compounds were evaluated by a proliferation inhibition assay of active cancer cells in vitro.
In vitro proliferation data for a human tumor cell line of H460 non-small cell lung cancer were reported in a Table of compounds below.
IC50 values were in nanomoles and were obtained by the following procedure. Cells were exposed in the compounds with different concentration for 2 hours. Next, the compounds were washed off, and fresh medium was added into plates. Afterwards, a growth rate and a cell-survival rate were obtained by cell staining and compared with a control treated with the medium only.
Specifically speaking, the exponentially growing cells were seeded in 96-well plates at a density of 4×10^3 cells/well, and incubated for 24 hours at 37° C. in 5% CO2, 95% air and 100% relative humidity. Next, the compounds were added. Complementary, the compounds were dissolved in 100% DMSO at 200 times a desired final test concentration. The compounds were further diluted to 4 times the desired final test concentration with complete medium when the drug was added. A 50 μl aliquot of drug with the specific concentrations of the compounds was added to the 96-well plates already containing 150 μl of medium respectively to get the final test concentration reported. After the drug was added, the 96-well plates were incubated for 2 hours at 37° C. in 5% CO2, 95% air and 100% relative humidity. Then, the drug was washed off, and the 96-well plates were incubated for 70 hours at 37° C. in 5% CO2, 95% air and 100% relative humidity after adding the fresh medium. At the end of this incubation, Alamar Blue assay was used to quantify viable cells. The concentrations of the drug causing 50% growth inhibition (IC50) were calculated using computer software, and results are presented in a table below.
A cancer cell proliferation activity of the compounds with or without AKR1C3 enzyme inhibition was measured with and without adding TH3021 (with a sufficient inhibitory concentration), an inhibitor of AKR1C3.

Where [3] appears, read: alkaline borate buffer, 25 °C, pH 10, aqueous buffer, pH 10.0 (Alkaline borate buffer).
[4] abbreviates: ethanol/propylene glycol (50:50, v/v), 25 °C, organic solvent or mixture, Ethanol/Propylene glycol (50:50, v/v).
Setting [5] is: phosphate buffer of pH 6.8, 25 °C, pH 6.8, aqueous buffer, pH 6.8 (Phosphate buffer).
Setting [6] is: phosphate buffer of pH 7.4, 25 °C, pH 7.4, aqueous buffer, pH 7.4 Phosphate buffer.
Setting [7] is: phosphate buffer, 25 °C, pH 7.4, aqueous buffer, pH 7.4 Phosphate buffer.
The mark [8] stands for this setting: purified water, 25 °C, water, Purified water.

≈ marks a conversion by molar mass, not a printed value. Entries after “also recorded” stand apart in the source; their conditions may differ. Like-named read-outs stand apart in the source and are kept apart here. Bounds are passed on as bounds.

Regarding `C[C@H](OP(=O)(N1CC1)N1CC1)c1ccc([N+](=O)[O-])c(Oc2cccc(C(=O)N(C)C)c2)c1` [AST-3424, (S)-1-(3-(3-N,N-Dimethylaminocarbonyl)phenoxy-4-nitrophenyl)-1-ethyl-N,N′-bis(ethylene) phosphoramidate], the “Solubility, descriptive terms” value in data set [1] (Purified water) is reported as “Sparingly soluble”; in data set [1] (ethanol/propylene glycol (50:50, v/v)), “easily soluble; also recorded: Freely soluble (FS)”; in data set [1] (pH 6.8 (Phosphate buffer)), “Sparingly soluble”; in data set [1] (pH 7.4 (Phosphate buffer)), “Sparingly soluble”; in data set [1] (pH 10.0 (Alkaline borate buffer)) it was “Sparingly soluble”. For the same compound, the solubility in data set [1] (setting [3]) is about 23 mg/mL (≈ 50 mM); in data set [1] (ethanol/propylene glycol (50:50, v/v), 25 °C, organic solvent or mixture, ethanol/propylene glycol (50:50, v/v)), over 270 mg/mL; in data set [1] (phosphate buffer, 25 °C, pH 6.8, aqueous buffer, pH 6.8 (Phosphate buffer)), about 23 mg/mL (≈ 50 mM); in data set [1] (phosphate buffer, 25 °C, pH 7.4, aqueous buffer, pH 7.4 (Phosphate buffer)) it was about 23 mg/mL (≈ 50 mM); in data set [1] (purified water, 25 °C, water), about 20 mg/mL (≈ 43.4 mM). For the same compound, the solubility at 1 h in data set [1] (setting [3]) was found to be 23.5 mg/mL (≈ 51 mM); in data set [1] (setting [4]), 271 mg/mL (≈ 589 mM); in data set [1] (setting [5]), 23 mg/mL (≈ 50 mM); in data set [1] (setting [6]), 23.7 mg/mL (≈ 51.4 mM); in data set [1] (setting [8]), 20.9 mg/mL (≈ 45.4 mM). The solubility at 4 h is 23.6 mg/mL (≈ 51.2 mM) in data set [1] (setting [3]); 302 mg/mL (≈ 657 mM) in data set [1] (setting [4]); 22.9 mg/mL (≈ 49.8 mM) in data set [1] (setting [5]); 23.5 mg/mL (≈ 51 mM) in data set [1] (setting [6]); 20.1 mg/mL (≈ 43.7 mM) in data set [1] (setting [8]). For the same compound, the solubility at 8 h was found to be 23.5 mg/mL (≈ 51 mM) in data set [1] (setting [3]); 301 mg/mL (≈ 654 mM) in data set [1] (setting [4]); 23 mg/mL (≈ 50 mM) in data set [1] (setting [5]); 23.6 mg/mL (≈ 51.2 mM) in data set [1] (setting [7]); 19.7 mg/mL (≈ 42.7 mM) in data set [1] (setting [8]). Moreover, the solubility at 24 h stood at 23.5 mg/mL (≈ 51 mM) in data set [1] (setting [3]); 299 mg/mL (≈ 649 mM) in data set [1] (setting [4]); 22.6 mg/mL (≈ 49.1 mM) in data set [1] (setting [5]); 23.7 mg/mL (≈ 51.4 mM) in data set [1] (setting [7]); 18.8 mg/mL (≈ 40.9 mM) in data set [1] (setting [8]). Besides, the solubility at 48 h in data set [1] (setting [3]) was found to be 23.7 mg/mL (≈ 51.4 mM); in data set [1] (setting [4]), 274 mg/mL (≈ 595 mM); in data set [1] (setting [5]), 22.1 mg/mL (≈ 47.9 mM); in data set [1] (setting [6]) it was 23.4 mg/mL (≈ 50.8 mM); in data set [1] (setting [8]), 17.8 mg/mL (≈ 38.6 mM).
In the case of `[2H]C([2H])([2H])N(C(=O)c1cccc(Oc2cc([C@H](C)OP(=O)(N3CC3)N3CC3)ccc2[N+](=O)[O-])c1)C([2H])([2H])[2H]` [AST-3424-D6], the concentration for half-maximal inhibition (IC50) is 165 nM in data set [2] (H460, + TH3021 (inhibitor of AKR1C3)); 109 nM in data set [2] (Homo sapiens, NCI-H460, H460, + TH3021 (inhibitor of AKR1C3)); under 4.57 nM in data set [2] (Homo sapiens, NCI-H460, H460, without TH3021). Also, the “In vitro activity compared with AST-3424, in words” value in data set [2] (H460, FIG. 1 and Table 12) is “similar”.
